From patent US9403873B2, “Peptides targeting receptor activator of nuclear factor-κB (RANK) and their applications” (UNIVERSITE DE NANTES, priority 2011, dated 2016)
“Also recorded” adds a separate entry of the source. Ends that are not written are not given here.

Tests used:
[1] = test system: cathepsin K, TRAP and NFATc1 mRNA in CD14+ cells; experiment: Real-time RT-PCR of osteoclast marker genes in CD14+ cells; assay type: cell-based, human; conditions: CD14+ cells with M-CSF and RANKL; day 3 to day 11 after RANKL stimulation
hRANK = target: T1, hRANK (Homo sapiens, UniProt Q9Y6Q6); experiment: Saturation transfer difference (STD) NMR of Pep8 binding to RANK; conditions: Pep8:RANK-Fc 100:1 to 1000:1, phosphate buffer
T1 construct: For NMR experiments with soluble RANK receptor-Fc (R&D Systems); purchased R&D Systems
T1 sequence (Q9Y6Q6 30-212 limits assumed): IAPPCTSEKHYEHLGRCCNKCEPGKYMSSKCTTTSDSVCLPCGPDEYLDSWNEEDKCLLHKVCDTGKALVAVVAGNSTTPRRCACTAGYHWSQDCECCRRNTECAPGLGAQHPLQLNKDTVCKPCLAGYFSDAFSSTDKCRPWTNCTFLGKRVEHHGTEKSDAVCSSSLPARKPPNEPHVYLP
Experimental: NMR experiments were run at 500.13 MHz for ^1H on a Bruker AVANCE 500 spectrometer with a Linux PC workstation, using standard 5 mm or Shigemi 3 mm tubes with susceptibility matched to solvent ^2H2O/Water sample tubes. The spectra of the polypeptide Pep8 at 0.1, 0.2, 0.4 or 1 mM sample concentrations were recorded in 50 mM sodium phosphate buffer at pH 7.4, prepared in 95% H2O and 5% ^2H2O. Two-dimensional NMR spectra were recorded in the phase-sensitive mode using the States—TPPI method (States et al. 1982). […] The two-dimensional COSY, TOCSY and NOESY spectra were recorded at 280 K. TOCSY spectra were recorded using a MLEV-17 spin-lock sequence (Bax et al. 1985) with a mixing time (τm) of 35 and 70 ms, respectively. 2D NOESY experiments were recorded at a mixing time (τm) of 100, 200 or 500 ms. The heteronuclear spectra ^1H-^13C HSQC were recorded at 280 K in the same conditions. […] Transferred nuclear Overhauser effect (TRNOESY) spectra of Pep8 with RANK receptor-Fc protein were recorded using a mixing time (Tm) of 100, 200 or 500 ms.
^1D ^1H STD NMR spectra of the polypeptide—protein mixtures were recorded at 500 MHz with 4K scans and selective saturation of protein resonances as described previously (Pons et al. 2011). […]

[2] = test system: mesenchymal stem cells (MSCs); experiment: Mineralization of mesenchymal stem cells (Alizarin red staining); assay type: cell-based; conditions: 100 μM
[3] = test system: RANKL-induced signaling (Akt, p38, ERK, NF-κB) in RAW264.7 cells; experiment: Western blot of RANKL-induced signaling in RAW264.7 cells; assay type: cell-based, murine
Experimental: After treatment for 5, 10, 15, 30 or 60 minutes at 37° C., total cell lysates were obtained and protein concentrations were determined as described previously (Duplomb et al. 2008). For NF-κB pathway analysis, separate cytoplasmic and nuclear protein fractions were obtained using the NE-PER Nuclear and Cytoplasmic Extraction Kit (Thermo Scientific, UK). Proteins (40 μg) were run on 10% SDS—PAGE and transferred to Immobilon-P membranes (Millipore, Billerica, Mass., USA), which were then incubated with antibodies to Akt, phospho-Akt, ERK 1/2, phospho-ERK 1/2, p38, phospho-p38, IκBα, p105, p65, p50 and Rel B (Cell Signalling, Danvers, Mass., USA). The labeled proteins were detected using the ECL reagent (Pierce, Rockford, Ill., USA). β-Actin (total cell extract or cytoplasmic fraction), histone H3, and HDAC (nuclear fraction) were used as housekeeping proteins (Cell Signalling).
Murine RAW264.7 cells (ATCC) were cultured in αMEM (Invitrogen) supplemented with 10% FBS (Hyclone). Human embryonic kidney 293 cells (ATCC) were stably transduced with an expression-ready clone (Ex-00007-Lv105, OmicsLink™ Expression Clone, GeneCopoeia™) containing the ORF cDNA of RANK/TNFRSF11A. HEK-RANK cells were maintained in DMEM (Lonza), 10% FBS and 1 μg/mL puromycin.

[4] = Stability of the polypeptide under NMR conditions in phosphate buffer; assay type: physicochemical; conditions: without protein, 2 weeks
Experimental: NMR experiments were run at 500.13 MHz for ^1H on a Bruker AVANCE 500 spectrometer with a Linux PC workstation, using standard 5 mm or Shigemi 3 mm tubes with susceptibility matched to solvent ^2H2O/Water sample tubes. The spectra of the polypeptide Pep8 at 0.1, 0.2, 0.4 or 1 mM sample concentrations were recorded in 50 mM sodium phosphate buffer at pH 7.4, prepared in 95% H2O and 5% ^2H2O. Two-dimensional NMR spectra were recorded in the phase-sensitive mode using the States—TPPI method (States et al. 1982). All experiments were carried out using the WATERGATE pulse sequence for water suppression (Piotto et al. 1992) or using the excitation sculpting water suppression (Hwang et al. 1995) to eliminate solvent signal in H2O/^2H2O 95:5 solution. The two-dimensional COSY, TOCSY and NOESY spectra were recorded at 280 K. TOCSY spectra were recorded using a MLEV-17 spin-lock sequence (Bax et al. 1985) with a mixing time (τm) of 35 and 70 ms, respectively. 2D NOESY experiments were recorded at a mixing time (τm) of 100, 200 or 500 ms. The heteronuclear spectra ^1H-^13C HSQC were recorded at 280 K in the same conditions. […] Transferred nuclear Overhauser effect (TRNOESY) spectra of Pep8 with RANK receptor-Fc protein were recorded using a mixing time (Tm) of 100, 200 or 500 ms.

[5] = 50 μM, 15 minutes of RANKL treatment

Sequence: NVLKLCSGE [Pep8, NVLKLCSGE]
- mRNA expression of cathepsin K, TRAP and NFATc1 [1]: inhibited the mRNA expression; also recorded: markedly reduced
- STD relative transfer ratio of residues C6S7 (hRANK): 60%
- STD saturation received by residues L3K4L5 (hRANK): 100%
- effect on mineralization of MSCs [2]: nor did the polypeptide at 100 μM exhibit any effect
- RANKL-induced degradation of IκBα and nuclear translocation of p50 and p65 ([3]; 50 μM): blocked
- expression levels of RelB in cytoplasmic and nuclear fraction ([3]; 50 μM): no effect
- RANKL-induced Akt phosphorylation ([3]; 50 μM, 5 minutes of RANKL treatment): exhibited an inhibitory effect
- RANKL-induced phosphorylation of ERK [3, 5]: inhibited phosphorylation
- RANKL-induced phosphorylation of p38 [3, 5]: inhibited phosphorylation
- basal phosphorylation of p38 ([3]; absence of RANKL stimulation): decreased phosphorylation of p38 even in the absence of RANKL stimulation
- stability under experimental NMR conditions [4]: remained stable
